Laboratory results as given in paper PMC8623168, “Evaluation of Amyloid Polypeptide Aggregation Inhibition and Disaggregation Activity of A-Type Procyanidins” (Pharmaceuticals, 2021).

Experiments:
Type in all cases: biochemical
[1] = biological target: T1, hIAPP (human islet amyloid polypeptide) (Homo sapiens, UniProt P10997); assay: thioflavin-T fluorescence, disaggregation of preformed aggregates; settings: read-out: EC50 (Aβ/hIAPP, μM) ^a
T1 construct: gene IAPP; mature peptide of 37 residues (34-70 of the precursor, recalled), bought from KareBay Biochem; aggregating peptide, monomer to fibril
T1 sequence (P10997 34-70): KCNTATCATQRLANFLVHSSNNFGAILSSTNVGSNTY
Source text: thioflavin-T fluorescence, disaggregation of preformed aggregates on hIAPP (human islet amyloid polypeptide)

[2] = biological target: T1, hIAPP (human islet amyloid polypeptide); assay: thioflavin-T fluorescence, aggregation inhibition; settings: read-out: IC50 (Aβ/hIAPP, μM) ^a
Source text: thioflavin-T fluorescence, aggregation inhibition on hIAPP (human islet amyloid polypeptide)

Aβ42 (amyloid-β; Aβ) [3] = biological target: T2, Aβ42 (amyloid-β; Aβ) (Homo sapiens, UniProt P05067); assay: thioflavin-T fluorescence, aggregation inhibition; settings: read-out: IC50 (Aβ/hIAPP, μM) ^a
T2 construct: gene APP; Abeta42 peptide of 42 residues (672-713 of APP, recalled); cut from amyloid precursor protein; aggregating peptide, monomer to fibril
T2 sequence (P05067 672-713): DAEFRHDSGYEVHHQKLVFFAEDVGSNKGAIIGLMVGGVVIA
Source text: thioflavin-T fluorescence, aggregation inhibition on Aβ42 (amyloid-β; Aβ)

Aβ42 (amyloid-β; Aβ) [4] = biological target: T2, Aβ42 (amyloid-β; Aβ); assay: thioflavin-T fluorescence, disaggregation of preformed aggregates; settings: read-out: EC50 (Aβ/hIAPP, μM) ^a
Source text: thioflavin-T fluorescence, disaggregation of preformed aggregates on Aβ42 (amyloid-β; Aβ)

| Compound | EC50 [1] [µM] | IC50 [2] [µM] | IC50 (Aβ42 (amyloid-β; Aβ) [3]) [µM] | EC50 (Aβ42 (amyloid-β; Aβ) [4]) [µM] |
| --- | --- | --- | --- | --- |
| COc1cc(OC)c2c(c1)O[C@@]1(c3ccc(OC)c(OC)c3)Oc3cc(OC)c4c(c3[C@@H]2[C@H]1O)O[C@H](c1ccc(OC)c(OC)c1)[C@H](O)C4 [compound 7, 7] | > 100 | > 100 | > 100 | > 100 |
| Oc1cc(O)c2c(c1)O[C@@]1(c3ccc(O)c(O)c3)Oc3c4c(cc(O)c3[C@@H]2[C@H]1O)O[C@H](c1ccc(O)c(O)c1)[C@@H](O)C4 [compound 6, 6] | – | 11.6 | 6.8 | – |
| Oc1cc(O)c2c(c1)O[C@H](c1ccc(O)c(O)c1)[C@@H](O)C2 [compound 9, (+)-catechin] | – | 40.9 | 56.8 | – |
| Oc1cc(O)c2c(c1)O[C@@]1(c3ccc(O)c(O)c3)Oc3c4c(cc(O)c3[C@@H]2[C@H]1O)O[C@H](c1ccc(O)c(O)c1)[C@H](O)C4 [compound 5, proanthocyanidin A7] | 15.8 | 13.4 | 2.4 | 8.9 |
| Oc1cc(O)c2c(c1)O[C@@]1(c3ccc(O)c(O)c3)Oc3cc(O)c4c(c3[C@@H]2[C@H]1O)O[C@H](c1ccc(O)c(O)c1)[C@H](O)C4 [compound 1, procyanidin A2] | 5.4 | 8.4 | 4.8 | 3.3 |
| Oc1cc(O)c2c(c1)O[C@@]1(c3ccc(O)c(O)c3)Oc3cc4c(c(O)c3[C@@H]2[C@H]1O)C[C@H](O)[C@@H](c1ccc(O)c(O)c1)O4 [compound 4, 4] | – | 16.8 | 5.7 | – |
| Oc1cc(O)c2c(c1)O[C@@]1(c3ccc(O)c(O)c3)Oc3cc4c(c(O)c3[C@@H]2[C@H]1O)C[C@@H](O)[C@@H](c1ccc(O)c(O)c1)O4 [compound 3, proanthocyanidin A6] | 4.9 | 16.4 | 4.2 | 23 |
| Oc1cc(O)c2c(c1)O[C@H](c1ccc(O)c(O)c1)[C@H](O)C2 [compound 8, (−)-epicatechin] | 12.2 | 38.9 | 41.7 | 12.9 |
| O=C(O[C@@H]1Cc2c(O)cc(O)cc2O[C@@H]1c1cc(O)c(O)c(O)c1)c1cc(O)c(O)c(O)c1 [EGCG, reference compound] | 3.7 | 1.1 | 3.8 | 5 |
